Experimental data published in patent publication US9321776B2, “Isochromene derivatives as phoshoinositide 3-kinases inhibitors” (CHIESI FARMACEUTICI S.p.A., priority 2013, dated 2016).
Counter-ions that a name gives are not always drawn.

Assays:
Assay in all cases: PI3K enzyme inhibitory activity in the cell free assay (ADP-Glo Kinase Assay)
Assay type in all cases: biochemical
PI3Kα = target: T1, PI3Kα (Homo sapiens, UniProt P42336); conditions: human recombinant PI3Kα, ATP 50 μM; read-out: PI3K alpha inhibition
T1 construct: purchased Millipore Ltd (Billerica, Mass.)

PI3Kβ = target: T2, PI3Kβ (Homo sapiens, UniProt P42338); conditions: human recombinant PI3Kβ, ATP 100 μM; read-out: PI3K beta inhibition
T2 construct: purchased Millipore Ltd (Billerica, Mass.)

PI3Kδ = target: T3, PI3Kδ (Homo sapiens, UniProt O00329); conditions: human recombinant PI3Kδ, ATP 80 μM; read-out: PI3K delta inhibition
T3 construct: purchased Millipore Ltd (Billerica, Mass.)
T3 sequence (O00329 1-1044): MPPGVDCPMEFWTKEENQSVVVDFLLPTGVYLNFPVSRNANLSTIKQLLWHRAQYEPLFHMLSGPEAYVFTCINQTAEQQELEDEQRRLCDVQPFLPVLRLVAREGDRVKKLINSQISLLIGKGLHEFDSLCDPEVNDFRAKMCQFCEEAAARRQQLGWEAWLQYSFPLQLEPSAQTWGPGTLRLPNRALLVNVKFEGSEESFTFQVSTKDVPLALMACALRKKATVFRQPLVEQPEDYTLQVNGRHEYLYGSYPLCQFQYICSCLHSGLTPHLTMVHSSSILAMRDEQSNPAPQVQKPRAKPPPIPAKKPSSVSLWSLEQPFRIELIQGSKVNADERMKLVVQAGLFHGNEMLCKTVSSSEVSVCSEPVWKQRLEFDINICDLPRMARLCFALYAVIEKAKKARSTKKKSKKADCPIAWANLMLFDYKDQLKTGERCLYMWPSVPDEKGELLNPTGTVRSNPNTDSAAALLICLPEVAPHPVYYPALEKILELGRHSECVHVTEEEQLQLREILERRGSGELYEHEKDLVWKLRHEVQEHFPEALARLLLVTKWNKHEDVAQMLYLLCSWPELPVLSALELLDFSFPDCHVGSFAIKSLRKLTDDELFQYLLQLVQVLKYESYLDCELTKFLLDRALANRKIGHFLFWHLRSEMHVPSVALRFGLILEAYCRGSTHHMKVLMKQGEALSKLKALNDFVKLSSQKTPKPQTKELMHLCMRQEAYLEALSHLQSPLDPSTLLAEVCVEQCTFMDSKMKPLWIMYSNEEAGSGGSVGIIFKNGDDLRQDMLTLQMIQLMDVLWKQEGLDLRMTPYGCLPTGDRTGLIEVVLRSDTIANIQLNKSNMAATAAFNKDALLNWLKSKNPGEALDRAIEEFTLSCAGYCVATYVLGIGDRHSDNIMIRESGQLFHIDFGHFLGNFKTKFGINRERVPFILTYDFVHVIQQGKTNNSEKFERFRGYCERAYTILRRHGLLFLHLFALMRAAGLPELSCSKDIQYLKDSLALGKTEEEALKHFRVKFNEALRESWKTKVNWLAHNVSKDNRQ

PI3Kγ = target: T4, PI3Kγ (Homo sapiens, UniProt P48736); conditions: human recombinant PI3Kγ, ATP 30 μM; read-out: PI3K gamma inhibition
T4 construct: purchased Millipore Ltd (Billerica, Mass.)
T4 sequence (P48736 whole entry): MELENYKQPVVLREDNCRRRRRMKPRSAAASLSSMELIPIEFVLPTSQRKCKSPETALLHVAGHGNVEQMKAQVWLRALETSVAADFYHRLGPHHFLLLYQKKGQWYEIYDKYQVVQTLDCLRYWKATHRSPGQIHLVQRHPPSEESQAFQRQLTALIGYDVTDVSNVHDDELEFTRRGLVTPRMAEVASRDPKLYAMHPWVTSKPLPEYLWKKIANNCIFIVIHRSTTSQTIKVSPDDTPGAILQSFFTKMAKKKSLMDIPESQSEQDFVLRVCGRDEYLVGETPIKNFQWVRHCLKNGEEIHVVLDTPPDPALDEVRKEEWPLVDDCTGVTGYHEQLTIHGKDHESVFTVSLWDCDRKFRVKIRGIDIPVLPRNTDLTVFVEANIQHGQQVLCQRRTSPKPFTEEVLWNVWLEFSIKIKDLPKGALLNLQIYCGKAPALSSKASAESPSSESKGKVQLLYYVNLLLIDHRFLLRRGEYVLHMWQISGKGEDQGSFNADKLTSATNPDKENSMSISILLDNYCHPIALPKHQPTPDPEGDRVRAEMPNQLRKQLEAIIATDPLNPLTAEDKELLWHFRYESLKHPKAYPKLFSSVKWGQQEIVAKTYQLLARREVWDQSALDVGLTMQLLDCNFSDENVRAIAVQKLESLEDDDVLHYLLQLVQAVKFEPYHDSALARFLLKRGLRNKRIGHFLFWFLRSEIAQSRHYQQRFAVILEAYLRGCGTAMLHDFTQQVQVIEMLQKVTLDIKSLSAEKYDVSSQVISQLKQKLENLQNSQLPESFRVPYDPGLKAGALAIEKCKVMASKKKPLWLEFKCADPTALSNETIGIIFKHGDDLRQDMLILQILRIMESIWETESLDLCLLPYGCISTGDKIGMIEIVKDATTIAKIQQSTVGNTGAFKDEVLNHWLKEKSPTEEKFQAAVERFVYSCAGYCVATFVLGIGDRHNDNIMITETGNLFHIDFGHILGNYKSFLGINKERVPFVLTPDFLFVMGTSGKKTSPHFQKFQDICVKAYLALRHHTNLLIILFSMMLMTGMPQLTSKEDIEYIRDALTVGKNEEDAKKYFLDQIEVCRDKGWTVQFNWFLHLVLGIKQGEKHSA

T2 sequence (P42338 whole entry): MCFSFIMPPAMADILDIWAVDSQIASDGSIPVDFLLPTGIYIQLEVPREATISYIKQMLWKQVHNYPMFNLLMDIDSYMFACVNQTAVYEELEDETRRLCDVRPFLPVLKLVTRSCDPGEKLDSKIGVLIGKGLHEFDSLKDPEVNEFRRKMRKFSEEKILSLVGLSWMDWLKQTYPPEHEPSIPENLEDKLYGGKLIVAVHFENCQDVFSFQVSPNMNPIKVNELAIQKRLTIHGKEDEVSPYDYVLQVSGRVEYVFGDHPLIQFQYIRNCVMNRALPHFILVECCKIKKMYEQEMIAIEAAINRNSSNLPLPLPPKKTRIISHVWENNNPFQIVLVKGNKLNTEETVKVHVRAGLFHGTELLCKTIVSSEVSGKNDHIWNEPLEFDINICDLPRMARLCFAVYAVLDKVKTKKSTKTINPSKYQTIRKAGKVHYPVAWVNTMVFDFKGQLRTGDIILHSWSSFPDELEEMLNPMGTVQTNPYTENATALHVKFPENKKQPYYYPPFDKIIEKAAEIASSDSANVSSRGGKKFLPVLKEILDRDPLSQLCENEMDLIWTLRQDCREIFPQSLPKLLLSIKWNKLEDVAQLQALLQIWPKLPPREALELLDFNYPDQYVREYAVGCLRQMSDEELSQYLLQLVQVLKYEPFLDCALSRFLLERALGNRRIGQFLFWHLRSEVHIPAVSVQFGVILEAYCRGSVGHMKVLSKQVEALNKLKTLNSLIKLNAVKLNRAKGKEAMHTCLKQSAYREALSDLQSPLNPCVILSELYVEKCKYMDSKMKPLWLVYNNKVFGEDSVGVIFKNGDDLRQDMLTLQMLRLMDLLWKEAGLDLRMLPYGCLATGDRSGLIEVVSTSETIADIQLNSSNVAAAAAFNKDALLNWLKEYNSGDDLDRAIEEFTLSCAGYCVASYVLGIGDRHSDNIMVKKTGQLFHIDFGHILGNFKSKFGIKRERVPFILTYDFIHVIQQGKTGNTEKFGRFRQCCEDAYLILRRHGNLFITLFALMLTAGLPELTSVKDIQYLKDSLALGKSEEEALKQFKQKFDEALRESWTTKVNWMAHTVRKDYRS
T1 sequence (P42336 whole entry): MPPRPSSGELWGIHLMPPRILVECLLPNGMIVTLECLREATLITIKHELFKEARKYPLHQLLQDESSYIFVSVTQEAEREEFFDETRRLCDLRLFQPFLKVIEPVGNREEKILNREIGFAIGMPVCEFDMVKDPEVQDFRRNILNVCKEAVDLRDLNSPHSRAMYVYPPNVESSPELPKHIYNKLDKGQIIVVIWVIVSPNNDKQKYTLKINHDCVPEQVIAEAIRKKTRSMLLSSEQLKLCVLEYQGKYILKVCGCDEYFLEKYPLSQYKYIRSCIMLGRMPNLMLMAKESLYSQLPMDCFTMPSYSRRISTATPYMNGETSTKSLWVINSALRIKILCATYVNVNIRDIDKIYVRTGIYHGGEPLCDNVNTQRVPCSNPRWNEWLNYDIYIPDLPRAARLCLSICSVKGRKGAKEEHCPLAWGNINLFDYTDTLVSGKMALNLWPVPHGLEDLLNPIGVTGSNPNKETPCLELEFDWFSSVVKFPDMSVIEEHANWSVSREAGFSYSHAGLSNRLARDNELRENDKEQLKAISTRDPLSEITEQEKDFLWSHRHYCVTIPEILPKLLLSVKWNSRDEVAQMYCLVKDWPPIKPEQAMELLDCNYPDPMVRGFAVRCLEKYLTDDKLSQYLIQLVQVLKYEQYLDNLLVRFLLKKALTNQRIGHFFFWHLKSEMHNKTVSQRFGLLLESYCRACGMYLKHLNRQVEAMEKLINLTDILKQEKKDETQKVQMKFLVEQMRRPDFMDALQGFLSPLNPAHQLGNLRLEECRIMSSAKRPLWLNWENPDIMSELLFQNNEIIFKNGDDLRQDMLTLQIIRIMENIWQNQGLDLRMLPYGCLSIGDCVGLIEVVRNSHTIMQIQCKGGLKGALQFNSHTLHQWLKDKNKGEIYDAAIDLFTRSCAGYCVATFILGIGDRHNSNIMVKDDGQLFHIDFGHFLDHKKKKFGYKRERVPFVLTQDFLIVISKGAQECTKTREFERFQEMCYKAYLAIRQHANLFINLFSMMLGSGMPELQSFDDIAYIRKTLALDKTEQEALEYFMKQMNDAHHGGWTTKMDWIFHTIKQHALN

Structure (SMILES)	IC50 (PI3Kα) [nM]	IC50 (PI3Kβ) [nM]	IC50 (PI3Kδ) [nM]	IC50 (PI3Kγ) [nM]
Nc1ncnc2c1c(-c1cncc(O)c1)nn2CC1=C(c2ccccc2)c2ccccc2CO1 [Example 129, 5-(4-amino-1-((4-phenyl-1H-isochromen-3-yl)methyl)-1H-pyrazolo[3,4-d]pyrimidin-3-yl)pyridin-3-ol]	10 to 1000	10 to 1000	10 to 1000	> 1000
CC(c1oc(=O)c2ccccc2c1CN1CCOCC1)n1nc(-c2cc(O)cc(F)c2)c2c(N)ncnc21 (centres unmarked) [Example 130, 3-(1-(4-amino-3-(3-fluoro-5-hydroxyphenyl)-1H-pyrazolo[3,4-d]pyrimidin-1-yl)ethyl)-4-(morpholinomethyl)-1H-isochromen-1-one]	10 to 1000	10 to 1000	< 10	10 to 1000
CC(c1oc(=O)c2ccccc2c1-c1ccc(CN2CCN(C)CC2)s1)n1nc(-c2cc(O)cc(F)c2)c2c(N)ncnc21 (centres unmarked) [Example 135, 3-(1-(4-amino-3-(3-fluoro-5-hydroxyphenyl)-1H-pyrazolo[3,4-d]pyrimidin-1-yl)ethyl)-4-(5-((4-methyl)piperazin-1-yl)methyl)thiophen-2-yl)-1H-isochromen-1-one, dihydrochloride]	10 to 1000	10 to 1000	< 10	10 to 1000
CC(c1oc(=O)c2ccccc2c1-c1ccc(CCCN(C)C)s1)n1nc(-c2cc(O)cc(F)c2)c2c(N)ncnc21 (centres unmarked) [Example 136, 3-(1-(4-amino-3-(3-fluoro-5-hydroxyphenyl)-1H-pyrazolo[3,4-d]pyrimidin-1-yl)ethyl)-4-(5-(3-(dimethylamino)propyl)thiophen-2-yl)-1H-isochromen-1-one, Formate]	> 1000	10 to 1000	< 10	> 1000
CC(c1oc(=O)c2ccccc2c1-c1cccc(CCCN(C)C)c1)n1nc(-c2cc(O)cc(F)c2)c2c(N)ncnc21 (centres unmarked) [Example 137, 3-(1-(4-amino-3-(3-fluoro-5-hydroxyphenyl)-1H-pyrazolo[3,4-d]pyrimidin-1-yl)ethyl)-4-(3-(3-(dimethylamino)propyl)phenyl)-1H-isochromen-1-one, Formic Acid]	> 1000	10 to 1000	< 10	10 to 1000
CC(c1oc(=O)c2ccccc2c1-c1ccc(CN2CCN(C)CC2)cc1)n1nc(-c2cc(O)cc(F)c2)c2c(N)ncnc21 (centres unmarked) [Example 139, 3-(1-(4-amino-3-(3-fluoro-5-hydroxyphenyl)-1H-pyrazolo[3,4-d]pyrimidin-1-yl)ethyl)-4-(4-((4-methylpiperazin-1-yl)methyl)phenyl)-1H-isochromen-1-one, dihydrochloride]	> 1000	> 1000	< 10	> 1000
CC(c1oc(=O)c2ccccc2c1-c1ccc(CN2CCCC2)cc1)n1nc(-c2cc(O)cc(F)c2)c2c(N)ncnc21 (centres unmarked) [Example 140, 3-(1-(4-amino-3-(3-fluoro-5-hydroxyphenyl)-1H-pyrazolo[3,4-d]pyrimidin-1-yl)ethyl)-4-(4-(pyrrolidin-1-ylmethyl)phenyl)-1H-isochromen-1-one, hydrochloride]	> 1000	10 to 1000	< 10	> 1000
CC(c1oc(=O)c2ccccc2c1-c1ccc(CN2CCCCC2)cc1)n1nc(-c2cc(O)cc(F)c2)c2c(N)ncnc21 (centres unmarked) [Example 141, 3-(1-(4-amino-3-(3-fluoro-5-hydroxyphenyl)-1H-pyrazolo[3,4-d]pyrimidin-1-yl)ethyl)-4-(4-(piperidin-1-ylmethyl)phenyl)-1H-isochromen-1-one, hydrochloride]	> 1000	10 to 1000	< 10	> 1000

Now from value to molecule:

IC50 (PI3Kα) [nM]	IC50 (PI3Kβ) [nM]	IC50 (PI3Kδ) [nM]	IC50 (PI3Kγ) [nM]	Structure (SMILES)
> 1000	> 1000	< 10	> 1000	CC(c1oc(=O)c2ccccc2c1-c1cccc(CN2CCN(C)CC2)c1)n1nc(-c2cc(O)cc(F)c2)c2c(N)ncnc21 (centres unmarked) [Example 142, 3-(1-(4-amino-3-(3-fluoro-5-hydroxyphenyl)-1H-pyrazolo[3,4-d]pyrimidin-1-yl)ethyl)-4-(3-((4-methylpiperazin-1-yl)methyl)phenyl)-1H-isochromen-1-one]
> 1000	10 to 1000	< 10	10 to 1000	CC(c1oc(=O)c2ccccc2c1C1=CC(C)(C)NC(C)(C)C1)n1nc(-c2cc(O)cc(F)c2)c2c(N)ncnc21 (centres unmarked) [Example 144, 3-(1-(4-amino-3-(3-fluoro-5-hydroxyphenyl)-1H-pyrazolo[3,4-d]pyrimidin-1-yl)ethyl)-4-(2,2,6,6-tetramethyl-1,2,3,6-tetrahydropyridin-4-yl)-1H-isochromen-1-one hydrochloride]
10 to 1000	10 to 1000	< 10	10 to 1000	CC(c1oc(=O)c2ccccc2c1C1=CC(C)(C)NC(C)(C)C1)n1nc(-c2cncc(O)c2)c2c(N)ncnc21 (centres unmarked) [Example 145, 3-(1-(4-amino-3-(5-hydroxypyridin-3-yl)-1H-pyrazolo[3,4-d]pyrimidin-1-yl)ethyl)-4-(2,2,6,6-tetramethyl-1,2,3,6-tetrahydropyridin-4-yl)-1H-isochromen-1-one dihydrochloride]
> 1000	10 to 1000	< 10	10 to 1000	CC(c1oc(=O)c2ccccc2c1C1=CCN(C(=O)CCCN(C)C)CC1)n1nc(-c2cc(O)cc(F)c2)c2c(N)ncnc21 (centres unmarked) [Example 146, 3-(1-(4-amino-3-(3-fluoro-5-hydroxyphenyl)-1H-pyrazolo[3,4-d]pyrimidin-1-yl)ethyl)-4-(1-(4-(dimethylamino)butanoyl)-1,2,3,6-tetrahydropyridin-4-yl)-1H-isochromen-1-one formate]
10 to 1000	10 to 1000	< 10	10 to 1000	CC(c1oc(=O)c2ccccc2c1C1=CCN(C(=O)CN(C)C)CC1)n1nc(-c2cc(O)cc(F)c2)c2c(N)ncnc21 (centres unmarked) [Example 147, 3-(1-(4-amino-3-(3-fluoro-5-hydroxyphenyl)-1H-pyrazolo[3,4-d]pyrimidin-1-yl)ethyl)-4-(1-(2-(dimethylamino)acetyl)-1,2,3,6-tetrahydropyridin-4-yl)-1H-isochromen-1-one formate]
> 1000	10 to 1000	< 10	10 to 1000	CC(c1oc(=O)c2ccccc2c1C1=CCN(C(=O)C2CCN(C)CC2)CC1)n1nc(-c2cc(O)cc(F)c2)c2c(N)ncnc21 (centres unmarked) [Example 148, 3-(1-(4-amino-3-(3-fluoro-5-hydroxyphenyl)-1H-pyrazolo[3,4-d]pyrimidin-1-yl)ethyl)-4-(1-(1-methylpiperidine-4-carbonyl)-1,2,3,6-tetrahydropyridin-4-yl)-1H-isochromen-1-one formate]
> 1000	10 to 1000	10 to 1000	10 to 1000	CC(c1oc(=O)c2ccccc2c1C1=CCN(C(=O)C2CN(C)C2)CC1)n1nc(-c2cc(O)cc(F)c2)c2c(N)ncnc21 (centres unmarked) [Example 151, 3-(1-(4-amino-3-(3-fluoro-5-hydroxyphenyl)-1H-pyrazolo[3,4-d]pyrimidin-1-yl)ethyl)-4-(1-(1-methylazetidine-3-carbonyl)-1,2,3,6-tetrahydropyridin-4-yl)-1H-isochromen-1-one formate]
10 to 1000	10 to 1000	< 10	10 to 1000	CC(c1oc(=O)c2ccccc2c1C1=CCNCC1)n1nc(-c2cc(O)cc(Cl)c2)c2c(N)ncnc21 (centres unmarked) [Example 152, 3-(1-(4-amino-3-(3-chloro-5-hydroxyphenyl)-1H-pyrazolo[3,4-d]pyrimidin-1-yl)ethyl)-4-(1,2,3,6-tetrahydropyridin-4-yl)-1H-isochromen-1-one formate]
> 1000	10 to 1000	< 10	> 1000	CC(c1oc(=O)c2ccccc2c1C1=CCNCC1)n1nc(-c2cc(O)cc(C(F)(F)F)c2)c2c(N)ncnc21 (centres unmarked) [Example 153, 3-(1-(4-amino-3-(3-hydroxy-5-(trifluoromethyl)phenyl)-1H-pyrazolo[3,4-d]pyrimidin-1-yl)ethyl)-4-(1,2,3,6-tetrahydropyridin-4-yl)-1H-isochromen-1-one formate]
